The numbers were not newly measured in patent publication EP2397122A2, “Formulations of neramexane dosage forms” (Merz Pharma GmbH & Co. KGaA, priority 2004, dated 2006), which cites them from elsewhere.

As for `CC12CC3CC(C)(C1)CC(N)(C3)C2` [memantine, 1-amino-3,5-dimethyladamantane], under “man”, the “elimination half-life (T½)” value was 60 to 80 h. For the same molecule, the absolute bioavailability result (oral administration in man) is on record as “approximately 100%”.
